Entries after “also recorded” stand apart in the source; their conditions may differ. Peptide text beside a SMILES is read from it.
Key:
[1] = biological target: T1, FGF14:Nav1.6 complex (Homo sapiens, UniProt Q92915); test: Split-luciferase complementation assay (LCA), CLuc-FGF14 wild type; assay type: cell-based; details: for effect on FGF14:Nav1.6 complex formation: 50 µM, 12 hr, HEK293, % maximal luminescence vs DMSO, n = 6–10 independent experiments, FLPK, EYYV p < .01, PLEV p < .001
T1 construct: expressed in transfected cells; host or cells: HEK293, transient transfection
T1 sequence (Q92915 1-252 isoform Q92915-2): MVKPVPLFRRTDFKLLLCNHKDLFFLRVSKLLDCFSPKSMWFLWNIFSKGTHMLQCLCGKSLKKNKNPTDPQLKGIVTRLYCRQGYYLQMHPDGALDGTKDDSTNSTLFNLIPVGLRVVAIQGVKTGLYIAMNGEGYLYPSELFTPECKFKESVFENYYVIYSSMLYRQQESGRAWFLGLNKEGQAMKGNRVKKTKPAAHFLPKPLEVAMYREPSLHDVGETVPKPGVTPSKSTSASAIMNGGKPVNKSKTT
Text: Plasmids used in this study derived from the following clones: human FGF14‐1b isoform (accession number: NM_175929.2) and human Nav1.6 (accession number: NM_014191.3). The CLuc‐FGF14, CD4‐Nav1.6‐NLuc, constructs and the pcDNA3.1 vector (Invitrogen, Carlsbad, CA) were engineered and characterized as previously described (Goetz et al., 2009; Shavkunov et al., 2012,2013,2015; Ali et al., 2016, 2018; Wadsworth et al., 2019). The plasmid pGL3 expressing full length Firefly (Photinus pyralis) luciferase was a gift from Dr. P. Sarkar (Department of Neurology, UTMB). For protein purification studies, cDNAs encoding FGF14‐1b (accession number NP_787125; aa 64–252) or the C‐terminal tail of Nav1.6 (accession number #NP_001171455; aa 1756–1939) were subcloned into suitable pET bacterial expression vectors (pET28a‐FGF14; pET30a‐Nav1.6) with a 6X His‐tag at the N‐terminal site; these plasmids were a gift of Dr. Moosa Mohammadi (NYU, Langone Medical Center). The mutation coding for FGF14^V160A was generated by site‐directed mutagenesis and PCR using FGF14‐1b as a template described previously (Ali et al., 2016). For electrophysiological studies FGF14‐GFP (human) and FGF14‐ΔNT‐GFP (human) were cloned into the GFP plasmid (pQBI‐fC2; Quantum Biotechnology Inc., Montreal, Canada) as previously described.
HEK293 cells were maintained in DMEM and F‐12 (Invitrogen, Carlsbad, CA), supplemented with 0.05% glucose, 0.5 mM pyruvate, 10% fetal bovine serum, 100 units/ml penicillin, and 100 µg/ml streptomycin (Invitrogen), and incubated at 37 °C with 5% CO2. HEK293 cells stably expressing the human Nav1.6 channel (hereafter referred to as HEK‐Nav1.6 cells) were maintained similarly except for the addition of 500 μg/ml G418 (Invitrogen) to maintain stable Nav1.6 expression. Cells were transfected at 80%–90% confluence with equal amount (1 μg each) of plasmid pairs using Lipofectamine 2000 (Invitrogen) according to manufacturer's instructions. HEK‐Nav1.6 cells were washed and replated at very low density prior to electrophysiological recordings (Ali et al., 2016, 2018; Scala et al., 2018; Wadsworth et al., 2019).
Twenty‐four hours after transfection, HEK293 cells were replated from the 24‐well plate using a 0.04% Trypsin:EDTA mixture dissolved in PBS. Suspended cells were centrifuged and seeded in white, clear‐bottom 96‐well tissue culture plates (Greiner Bio‐One) in 200 µl of medium. […] The bioluminescence reaction was initiated by dispensing 100 µl of D‐luciferin substrate (1.5 mg/ml dissolved in PBS) using a Synergy^TM H4 Multi‐Mode Micro plate Reader (Biotech, Winooski, VT). Luminescence readings were initiated after 3 s of mild plate shaking and performed at 2 min intervals for 20 min with integration times of 0.5 s. […]
To test the hypothesis that FLPK, PLEV and/or EYYV in cells could act as FGF14 inhibitors of the FGF14:Nav1.6 complex assembly, the complex was reconstituted using LCA (Ali et al., 2014, 2016; Hsu et al., 2015, 2017; Shavkunov et al., 2012,2013,2015; Wadsworth et al., 2019). HEK293 cells transfected with constructs expressing CLuc‐FGF14 and CD4‐Nav1.6 C‐tail‐NLuc in which luminescence is detected upon addition of the D‐luciferin substrate as a read‐out of protein binding (Figure 3). In‐cell binding of the reconstituted FGF14:Nav1.6 complex in the presence of vehicle (0.1% DMSO) is represented as summary bar graphs of percent maximal luminescence at 10–15 min of reaction time (Figure 3). […]

[2] = test system: FGF14^Y158N/V160N:Nav1.6 complex; test: LCA, CLuc-FGF14^Y158N/V160N; assay type: cell-based, human; details: 50 µM peptide, 12 hr, HEK293, vs DMSO

| Molecule | effect on FGF14:Nav1.6 complex formation [1] | effect on FGF14^Y158N/V160N:Nav1.6 complex formation [2] | IC50 ([1]; HEK293 cells, FLPK 1, 10, 25, 50, 75, 100, 150, 250 µM, luminescence normalized to DMSO, apparent IC50, read-out: IC50, inhibition of FGF14:Nav1.6 complex formation) [µM] | efficacy in reducing FGF14:Nav1.6 complex formation ([1]; dose-response (Figure 3f), compared to control conditions) |
| --- | --- | --- | --- | --- |
| PLEV [tetrapeptide previously designed from FGF14:FGF14 dimer interface; docked with N-terminal acetylation and C-terminal amidation] | significant reduction of the FGF14:Nav1.6 complex formation | increased the inhibition | – | – |
| EYYV [tetrapeptide previously designed from FGF14:FGF14 dimer interface; docked with N-terminal acetylation and C-terminal amidation] | significant reduction of the FGF14:Nav1.6 complex formation | – | – | – |
| CC(=O)N[C@@H](Cc1ccccc1)C(=O)N[C@@H](CC(C)C)C(=O)N1CCC[C@H]1C(=O)N[C@@H](CCCCN)C(N)=O [FLPK] (Ac-FLPK-NH2) | significant reduction of the FGF14:Nav1.6 complex formation; also recorded: weak inhibition | abolished the effect of FLPK; also recorded: similarly abolished | 58 | above 50% |
